Common to all, as to assay: Kinase selectivity, DiscoverX scanMAX Kinase assay panel (% control)
Common to all, as to type: binding

Assay [1] has as its target T1, kinases of the scanMAX Kinase assay panel (Homo sapiens, UniProt P43403).
T1 construct: purchased DiscoverX Co. (contract measurement) scanMAX Kinase assay panel
T1 sequence (P43403 1-619): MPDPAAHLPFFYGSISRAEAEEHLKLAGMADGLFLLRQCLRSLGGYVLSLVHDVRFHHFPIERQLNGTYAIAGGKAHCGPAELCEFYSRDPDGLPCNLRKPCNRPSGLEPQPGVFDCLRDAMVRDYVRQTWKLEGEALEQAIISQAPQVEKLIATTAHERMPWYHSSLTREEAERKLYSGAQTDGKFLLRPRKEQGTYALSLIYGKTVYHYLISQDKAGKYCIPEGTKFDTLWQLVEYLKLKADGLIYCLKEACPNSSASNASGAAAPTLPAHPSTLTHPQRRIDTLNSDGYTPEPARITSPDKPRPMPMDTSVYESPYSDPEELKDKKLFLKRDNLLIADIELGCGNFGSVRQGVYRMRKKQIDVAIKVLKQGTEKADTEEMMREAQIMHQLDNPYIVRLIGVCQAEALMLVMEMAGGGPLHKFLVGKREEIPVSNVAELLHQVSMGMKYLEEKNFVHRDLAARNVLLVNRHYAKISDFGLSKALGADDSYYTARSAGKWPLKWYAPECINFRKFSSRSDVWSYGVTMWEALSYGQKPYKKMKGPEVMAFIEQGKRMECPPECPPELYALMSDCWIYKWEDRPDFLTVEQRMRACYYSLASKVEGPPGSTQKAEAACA
Particulars: kinase ZAP70; 1 uM in DMSO. The method, boiled down:
(§1)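 Each enzyme is treated with drug at 1 uM in DMSO, then signal is scaled between a positive control (0%) and DMSO (100%) to give % control. Kinases with % control under 35% are scored as inhibited.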

The target in assay [2] is T2, kinases of the scanMAX Kinase assay panel (Homo sapiens, UniProt Q14012).
T2 construct: purchased DiscoverX Co. (contract measurement) scanMAX Kinase assay panel
T2 sequence (Q14012 whole entry): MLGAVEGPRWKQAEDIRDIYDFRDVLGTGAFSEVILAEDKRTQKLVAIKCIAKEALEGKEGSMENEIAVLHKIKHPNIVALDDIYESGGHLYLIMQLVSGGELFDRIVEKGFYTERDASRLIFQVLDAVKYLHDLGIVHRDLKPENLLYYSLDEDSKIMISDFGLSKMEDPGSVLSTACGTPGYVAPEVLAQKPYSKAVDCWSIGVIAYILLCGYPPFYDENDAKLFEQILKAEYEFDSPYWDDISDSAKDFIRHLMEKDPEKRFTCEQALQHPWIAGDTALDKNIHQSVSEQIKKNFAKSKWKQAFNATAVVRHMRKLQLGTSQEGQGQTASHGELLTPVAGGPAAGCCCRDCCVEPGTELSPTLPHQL
The conditions noted are these: CAMK1; 1 uM. The method, boiled down: as §1

Assay [3] has as its target T3, kinases of the scanMAX Kinase assay panel (Homo sapiens, UniProt Q86YV6).
T3 construct: purchased DiscoverX Co. (contract measurement) scanMAX Kinase assay panel
T3 sequence (Q86YV6 1-388): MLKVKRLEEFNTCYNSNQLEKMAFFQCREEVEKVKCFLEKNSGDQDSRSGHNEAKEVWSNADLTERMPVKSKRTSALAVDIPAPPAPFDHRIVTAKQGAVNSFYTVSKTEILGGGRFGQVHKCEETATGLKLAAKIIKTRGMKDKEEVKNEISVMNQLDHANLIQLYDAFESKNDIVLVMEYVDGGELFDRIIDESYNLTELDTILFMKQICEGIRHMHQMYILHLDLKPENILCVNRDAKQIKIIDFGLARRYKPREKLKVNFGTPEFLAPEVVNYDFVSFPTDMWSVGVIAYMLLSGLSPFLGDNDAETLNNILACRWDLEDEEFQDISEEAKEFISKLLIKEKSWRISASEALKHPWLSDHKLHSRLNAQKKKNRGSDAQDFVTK
Particulars: MYLK4; 1 uM. The method, boiled down: as §1

The target of assay [4] is T4, kinases of the scanMAX Kinase assay panel (Homo sapiens, UniProt P30530).
T4 construct: purchased DiscoverX Co. (contract measurement) scanMAX Kinase assay panel
T4 sequence (P30530 26-894): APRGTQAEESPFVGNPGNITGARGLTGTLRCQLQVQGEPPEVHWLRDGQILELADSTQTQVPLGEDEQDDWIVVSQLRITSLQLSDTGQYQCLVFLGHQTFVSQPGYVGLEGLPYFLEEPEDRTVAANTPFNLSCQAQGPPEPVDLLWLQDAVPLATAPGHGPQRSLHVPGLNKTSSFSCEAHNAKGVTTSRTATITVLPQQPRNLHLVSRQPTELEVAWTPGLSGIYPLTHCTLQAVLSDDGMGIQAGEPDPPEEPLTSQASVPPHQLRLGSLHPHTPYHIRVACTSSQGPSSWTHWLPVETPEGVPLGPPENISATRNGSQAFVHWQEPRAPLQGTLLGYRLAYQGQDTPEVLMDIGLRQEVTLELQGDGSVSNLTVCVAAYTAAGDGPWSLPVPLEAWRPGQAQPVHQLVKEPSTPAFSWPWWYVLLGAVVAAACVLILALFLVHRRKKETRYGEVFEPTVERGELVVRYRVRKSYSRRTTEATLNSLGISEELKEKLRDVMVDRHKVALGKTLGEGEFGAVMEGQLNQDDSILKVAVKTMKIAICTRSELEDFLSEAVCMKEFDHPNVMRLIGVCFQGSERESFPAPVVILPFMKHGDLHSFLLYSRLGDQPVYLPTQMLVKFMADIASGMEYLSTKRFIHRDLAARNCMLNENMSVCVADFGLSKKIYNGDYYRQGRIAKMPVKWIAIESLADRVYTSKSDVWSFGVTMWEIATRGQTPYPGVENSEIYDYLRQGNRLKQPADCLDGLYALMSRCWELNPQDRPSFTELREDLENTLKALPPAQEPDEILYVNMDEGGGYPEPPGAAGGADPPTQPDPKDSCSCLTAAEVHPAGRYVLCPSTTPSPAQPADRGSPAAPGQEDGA
The conditions noted are these: AXL; 1 uM. A digest of the protocol:
as §1

For assay [5], the target named is T5, kinases of the scanMAX Kinase assay panel (Homo sapiens, UniProt P22607, G697C).
T5 construct: purchased DiscoverX Co. (contract measurement) scanMAX Kinase assay panel
T5 sequence (P22607 23-806 G697C): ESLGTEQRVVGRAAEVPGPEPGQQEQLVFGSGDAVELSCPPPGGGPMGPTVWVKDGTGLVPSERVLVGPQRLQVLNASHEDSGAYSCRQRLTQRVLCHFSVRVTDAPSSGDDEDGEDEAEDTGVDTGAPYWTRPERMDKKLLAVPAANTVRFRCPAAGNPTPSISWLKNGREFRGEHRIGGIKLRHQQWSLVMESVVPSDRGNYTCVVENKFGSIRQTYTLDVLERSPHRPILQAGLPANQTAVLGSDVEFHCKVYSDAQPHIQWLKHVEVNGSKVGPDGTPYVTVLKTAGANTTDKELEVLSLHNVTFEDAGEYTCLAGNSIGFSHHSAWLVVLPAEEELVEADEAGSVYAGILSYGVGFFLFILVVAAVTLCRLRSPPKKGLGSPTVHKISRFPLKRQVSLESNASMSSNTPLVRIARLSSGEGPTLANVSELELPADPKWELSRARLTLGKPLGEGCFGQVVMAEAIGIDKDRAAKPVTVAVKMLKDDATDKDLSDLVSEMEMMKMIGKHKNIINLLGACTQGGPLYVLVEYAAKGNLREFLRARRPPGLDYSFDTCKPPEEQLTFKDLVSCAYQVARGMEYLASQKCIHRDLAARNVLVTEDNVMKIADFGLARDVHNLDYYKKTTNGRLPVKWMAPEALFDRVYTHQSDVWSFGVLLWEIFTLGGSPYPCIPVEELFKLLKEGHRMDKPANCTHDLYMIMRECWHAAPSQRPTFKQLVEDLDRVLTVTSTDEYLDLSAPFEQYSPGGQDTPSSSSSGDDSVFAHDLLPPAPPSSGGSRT
Particulars: FGFR3(G697C); 1 uM. A digest of the protocol:
as §1

For `CC1(Nc2nc(Nc3cnn([C@H]4CCN(C5COC5)C[C@@H]4F)c3Cl)nc3[nH]cc(C#N)c23)CC1` [Example 52, 2-((5-chloro-1-((3S,4S)-3-fluoro-1-(oxetane-3-yl)piperidine-4-yl)-1H-pyrazole-4-yl)amino)((1-methylcyclopropyl)amino)-7H-pyrrolo[2,3-d]pyrimidine-5-carbonitrile], the remaining binding at 1 µM in assay [1] is 2.2%; in assay [2] it was 6.8%; in assay [3], 82%; in assay [4] it was 0%; in assay [5], 11%.
For the molecule `CCNc1nc(Nc2ccc(C(=O)N3CCC(N4CCOCC4)CC3)cc2OC)nc2[nH]cc(C(F)(F)F)c12` [Example 104, (4-((4-(ethylamino)-5-(trifluoromethyl)-7H-pyrrolo[2,3-d]pyrimidine-2-yl)amino)-3-methoxyphenyl)(4-morpholinopiperidine-1-yl)methanone], the remaining binding at 1 µM in assay [1] amounted to 100%; in assay [2], 72%; in assay [3] it was 89%; in assay [4], 69%; in assay [5], 100%.
With `CNc1nc(Nc2ccc(C(=O)N3CCOCC3)cc2OC)nc2[nH]cc(C#N)c12` [Example 1, 2-((2-methoxy-4-(morpholine-4-carbonyl)phenyl)amino)-4-(methylamino)-7H-pyrrolo[2,3-d]pyrimidine-5-carbonitrile], the remaining binding at 1 µM in assay [1] amounted to 35%; in assay [2] it was 59%; in assay [3], 90%; in assay [4] it was 90%; in assay [5], 97%.

(Values after patent publication US11208412B2 (DAEGU-GYEONGBUK MEDICAL INNOVATION FOUNDATION, priority 2017, dated 2021).)
